{"source": "patent US9868695B2", "about": "(priority 2014, dated 2018)", "key": {"[1]": {"system": "microtubules in HCT-116 cells", "test": "Effect of compounds on microtubules, confocal microscopy", "type": "cell-based, Human", "conditions": "100 nM, 24 h, anti-α-tubulin staining, compared to control", "experimental": "For detection of tubulins, HCT-116 cells (1×10^5 cells/well) were seeded on to 18 mm square cover slips in six well plates in complete medium. […] After the treatment period, cells were fixed in 4% paraformaldehyde for 10 min at room temperature and permeabilized using 0.5% Triton-X in PBS for 5 min. The cells were blocked with 10% goat serum for 20 min at room temperature. Microtubules were detected with a monoclonal α-tubulin antibody (Sigma, Catalogue number: T9026) diluted 1:100 in 0.1% Triton X-100 in PBS for 1 h at room temperature and Alexa Fluor 488 conjugated secondary antibody (Invitrogen) diluted 1:500 in PBS for 1 h at room temperature. Cells were then washed three times in PBS and stained with 4′,6-diamidino-2-phenylindole (DAPI 1 μg/ml in PBS). The cover slips were mounted over glass slides and cells were imaged by a laser scanning confocal microscope (Olympus Fluoview FV1000). The promising candidates identified through P-gp screening and antiproliferative screening were further studied for tubulin polymerization inhibition activity."}, "[2]": {"test": "Oral and IV pharmacokinetic studies", "type": "in vivo", "conditions": "BALB/c mice; for bioavailability: PO 10 mg/Kg vs IV 1 mg/Kg", "experimental": "Oral and intravenous (IV) pharmacokinetic studies of compound 1g were carried out in BALB/c male mice (Jubilant Biosys Limited, Bangalore) of age 4-6 weeks, by administering 1g orally and IV at dose of 10 mg/kg for oral and 1 mg/kg for IV. Plasma samples were collected at appropriate time points between the range of 0 hours to 24 hours and analyzed by LC-MS-MS. Mean plasma concentration calculated and data were further analyzed for PK parameters using WinNonlin 5.3 software package."}, "HCT-116": {"system": "HCT-116", "test": "Antiproliferative activity, MTT assay, HCT-116", "type": "cell-based, Human", "conditions": "48 h", "experimental": "(§1) Human colon cancer cell lines HCT-116 (NCI, passage no. 5) and Colo-205 116 (NCI, passage no. 3) were procured from National Cancer Institute, USA. HCT-116 and Colo-205 cells were grown in McCoy's 5A and RPMI growth medium respectively containing 10% FCS, 100 U penicillin and […] per mL medium. Cells were grown in CO2 incubator (Thermocon Electron Corporation, Houston, Tex.) at 37° C. with 95% humidity and 5% CO2 gas environment. Cells treated with tested materials were dissolved in DMSO while the untreated control cultures received only the vehicle (DMSO<0.2%). Cells were seeded in 96 well plates and exposed to tested compounds at various concentrations for 48 h time interval. MTT dye (2.5 mg/ml in PBS) was added 4 hrs priors to experiment termination. The plates were then centrifuged at 1500 rpm for 15 min and the supernatant was discarded, and MTT formazan crystals were dissolved in 150 μl of DMSO. The OD measured at 570 nm with reference wavelength of 620 nm.\n(§2) The percentages of cell viability and growth inhibition were calculated using formulas: […]"}, "Ehrlich solid tumor": {"system": "Ehrlich solid tumor", "test": "In vivo activity in Ehrlich solid tumor model", "set-up": "species or system swiss mice", "conditions": "i/p day 1-9, 1 0.75 mg/kg, 1g 1 mg/kg, 5-fluorouracil 22 mg/kg; for Mortality: dead/group size", "experimental": "Ehrlich ascites carcinoma (EAC) cells were collected from the peritoneal cavity of the swiss mice (animal house of IIIM registered eith CPCSEA; registration no. 67/99/CPCSEA) weighing 18-23 gm, harbouring 8-10 days old ascitic tumor. 1×10^7 EAC cells were injected intramuscularly in the right thigh of 38 swiss male mice selected for the experiment on day 0. The next day, animals were randomized and divided into five groups. Four treatment groups contained 7 animals each and one control group contained 10 animals. Treatment was given as follows:\nGroup I: 1 (0.75 mg/kg, i/p) from day 1-9.\nGroup II: 1g (1 mg/kg, i/p) from day 1-9.\nThe third treatment group was treated with 5-fluorouracil (22 mg/kg, i/p) from day 1-9 and it served as positive control. The control group was similarly administered normal saline (0.2 ml, i/p) from day 1-9. On day 9 & 13, tumor bearing thigh of each animal was shaved and longest and shortest diameters of the tumor were measured with the help of vernier caliper. Tumor weight of each animal was calculated using the following formula.\nThe percent tumor growth inhibition was calculated on day 13 by comparing the average values of treated groups with that of control group. Tumor growth in saline treated control animals was taken to be 100%."}, "P-gp": {"system": "P-gp", "test": "P-gp induction assay, rhodamine123 (Rh123) cell exclusion method in LS-180 cells", "experimental": "All synthesized compounds were screened for their ability to induce P-gp by using rhodamine123 (Rh123) cell exclusion method. In this method, the P-gp function was evaluated in terms of rhodamine 123 (Rh123) accumulation and efflux. Briefly, the protocol used is as follows: Colorectal LS-180 cells (ECACC type, purchased from Sigma, Cat. no. 87021202, cell passage no. 52) were seeded at a density of 2×10^4 per well of 96 well plate and were allowed to grow for next 24 h. Cells were further incubated with the test compounds, and were diluted to a final concentration of 100 nM and rifampicin (standard) to a final concentration of 10 μM in complete media for 48 h. The final concentration of DMSO was kept at 0.1%. Drugs were removed and cells were incubated with HANKS buffer for 40 minutes before further incubation with HANKS buffer (containing 10 μM of Rh123 as a P-gp substrate) for 90 minutes. At the end of Rh123 treatment cells were washed four times with cold PBS followed by cell lysis for 1 h by using 200 μl of lysis buffer (0.1% Triton X-100 and 0.2 N NaOH). A total of 100 μl of lysate was used for reading fluorescence of Rh123 at 485 nm/529 nm. Samples were normalized by dividing fluorescence of each sample with total protein present in the lysate. For EC50 determination, different concentrations of compound were used to treat LS180 cells for 48 h. EC50 was determined by plotting fluorescence of Rh123 against concentration of compound."}, "Colo-205": {"system": "Colo-205", "test": "Antiproliferative activity, MTT assay, Colo-205", "type": "cell-based", "conditions": "Homo sapiens, 48 h", "experimental": "as §1, §2"}, "[3]": {"conditions": "male, mouse, plasma, IV 1 mg/Kg"}, "[4]": {"conditions": "male, mouse, plasma, PO 10 mg/Kg"}}, "note": "“And” between values parts separate entries of the source, which are not always exact repeats. Equal entries are not always repeated. Where two headings read alike, the source gives them in different places.", "data": [{"smiles": "COc1cc2c(c(OC)c1OC)-c1ccc(Nc3ccc(Cl)c(C(F)(F)F)c3)c(=O)cc1[C@@H](NC(C)=O)CC2", "note": "[Compound 1g, N-[(7S)-1,2,3-Trimethoxy-9-oxo-10-[3-(trifluoromethyl)-4-chloro-phenylamino]-5,6,7,9-tetrahydrobenzo[a]heptalen-7-yl]acetamide]", "values": [{"measurement": "disruption of microtubule assembly", "setting": "[1]", "result": "remarkable disruption and loss of microtubules"}, {"measurement": "Tlast", "setting": "[2]; IV 1 mg/Kg", "result": 8.00, "unit": "h"}, {"measurement": "CL", "setting": "[2]; IV 1 mg/Kg, 1 mg/kg", "result": 6.19, "unit": "mL/min/kg"}, {"measurement": "bioavailability", "setting": "[2]", "result": 64.4, "unit": "% F"}, {"measurement": "clearance", "setting": "[2]; male, BALB/c, mouse, plasma, iv, 1 mg/kg, IV 1 mg/Kg", "result": "~6", "unit": "mL/min/kg"}, {"measurement": "Vd", "setting": "[2]; male, BALB/c, mouse, plasma, iv, 1 mg/kg, IV 1 mg/Kg, read-out: Vd", "result": 1.49, "unit": "L/kg"}, {"measurement": "Vd", "setting": "[2]; male, BALB/c, mouse, plasma, iv, 1 mg/kg, IV 1 mg/Kg, read-out: Vdss", "result": 1.47, "unit": "L/kg"}, {"measurement": "AUC(0-inf)", "setting": "[2]; [3]", "result": 2690, "unit": "ng·h/mL"}, {"measurement": "AUC(0-t)", "setting": "[2]; [3]", "result": 2340, "unit": "ng·h/mL"}, {"measurement": "Cmax", "setting": "[2]; [3]", "result": 698, "unit": "ng/mL"}, {"measurement": "C0", "setting": "[2]; male, mouse, plasma, IV 1 mg/Kg, extrapolated, calculated manually using initial 3 time points", "result": 819, "unit": "ng/mL"}, {"measurement": "half-life", "setting": "[2]; male, mouse, plasma, IV 1 mg/Kg, read-out: t1/2, β (converted)", "result": 2.78, "unit": "h"}, {"measurement": "bioavailability", "setting": "[2]; male, mouse, plasma, read-out: absolute oral bioavailability", "result": 64, "unit": "%"}, {"measurement": "AUC(0-inf)", "setting": "[2]; [4]", "result": 17300, "unit": "ng·h/mL"}, {"measurement": "AUC(0-t)", "setting": "[2]; [4]", "result": 16900, "unit": "ng·h/mL"}, {"measurement": "Cmax", "setting": "[2]; [4]", "result": 3030, "unit": "ng/mL"}, {"measurement": "Tmax", "setting": "[2]; [4]", "result": 2, "unit": "h"}, {"measurement": "half-life", "setting": "[2]; male, mouse, plasma, PO 10 mg/Kg, read-out: t1/2,β (converted)", "result": 5.43, "unit": "h"}, {"measurement": "IC50", "setting": "HCT-116", "result": 40, "unit": "nM"}, {"measurement": "Avg. body weights (g) of animal on days 1", "setting": "Ehrlich solid tumor; day 1", "result": 22.28, "unit": "g"}, {"measurement": "Avg. body weights (g) of animal on days 5", "setting": "Ehrlich solid tumor; day 5", "result": 22.0, "unit": "g"}, {"measurement": "Avg. body weights (g) of animal on days 9", "setting": "Ehrlich solid tumor; day 9", "result": 21.28, "unit": "g"}, {"measurement": "Day 13 Avg. body weights", "setting": "Ehrlich solid tumor; day 13", "result": 21.66, "unit": "g"}, {"measurement": "Day 13 Avg. tumor weights", "setting": "Ehrlich solid tumor; day 13", "result": 778.0, "unit": "mg"}, {"measurement": "% Tumor Growth Inhibition", "setting": "Ehrlich solid tumor; day 13 vs saline control", "result": 47.35, "unit": "%"}, {"measurement": "Mortality", "setting": "Ehrlich solid tumor", "result": "no mortality and 0/7"}, {"measurement": "Mortality", "setting": "Ehrlich solid tumor; listed as 4o", "result": "no mortality"}, {"measurement": "P-gp induction activity", "setting": "P-gp; LS180 cells, Rh123 accumulation, in words", "result": "complete loss of P-gp induction activity"}, {"measurement": "% intracellular accumulation of Rh123 in LS180 cells", "setting": "P-gp; compound 100 nM, 48 h, control = 100%, decrease indicates P-gp induction", "result": 90, "unit": "%"}, {"measurement": "EC50", "setting": "P-gp; read-out: EC50, induction of P-gp, P-gp overexpressing LS-180 cells, 48 h", "result": 69, "unit": "nM"}, {"measurement": "IC50", "setting": "Colo-205", "result": 30, "unit": "nM"}]}]}
